Source: patent US11266710B2, “Angio-3 for treatment of retinal angiogenic diseases” (SINGAPORE HEALTH SERVICES PTE LTD, priority 2017, dated 2022)
Where no end group is shown, it is not given here.

Experiments:
[1] = test system: KIBA mice that overexpress hVEGF; assay: Retinal function tests (ERG) in KIBA/KIMBA mice overexpressing hVEGF; assay type: in vivo, mouse; conditions: IVT treated; 2nd IVT at 12 weeks after 1st treatment
Description: Eight-week-old KIBA mice that overexpress hVEGF were dark-adapted overnight (for at least 12 hours) and all the procedures were carried out under dim red light. Mice were anesthetized with a combination of ketamine (20 mg/kg body weight) and xylazine (2 mg/kg body weight). Pupils were dilated with a topical administration of 1% tropicamide (Alcon Laboratories, Inc., Fort Worth, Tex., USA) and 2.5% phenylephrine (Bausch and Lomb Pharmaceuticals, Inc., Tampa, Fla., USA) ophthalmic solutions.
Animals were placed in ERG recording table with body temperature controller for ERG recordings. Electroretinograms were recorded (Espion; Diagnosys LLC, Lowell, Mass., USA) with corneal monopolar electrodes. A goldcup electrode was placed in the mouth to serve as the reference electrode, and a silver-silver chloride electrode (Grass-Telefactor, West Warwick, R.I., USA) was placed in the tail to serve as the ground electrode. Recordings were performed at a wide range of stimulus intensity (−3.0 to 1.0 log cd·s/m2) in dark-adapted (scotopic) condition. The response a teach flash intensity was an average of at least five trials. […]
ERG was recorded from 8 weeks old to 24 weeks old of mice in untreated group (naïve group). In Angio-3 IVT treated group, ERG was recorded at 8 weeks old as baseline (BL) and then 6 and 12 weeks post treatment. […]

[2] = test system: corneal epithelial wound in wild-type mice; assay: Corneal wound healing in a mouse model; assay type: in vivo; conditions: day 0 to Day 5; treated vs control wild-type mice
Text: FIGS. 28A and 28B are images and a graph showing results of testing wound healing in a mouse model. FIG. 28A are representative slitlamp biomicroscopy images of murine cornea following the removal of corneal epithelium from Angio-3 treated and control wild-type mice and topical fluorescein staining of the epithelial defect (green). FIG. 28B is a graph of the percentage of wound defect remaining (vertical axis) over time (horizontal axis) in Angio-3 treated and control wild-type mice, n=6 for each group from 2 independent experiments. Both groups are statistically significant. Angio-3 didn't affect the normal wound healing process. Data is represented as mean±S.D.
Two (2)-mm trephine was used to mark the wound size. Epithelium, basement membrane and some stromal layers were removed by peeling using forceps. Fluorescein staining to the wounded area of cornea was done from day 0 to Day 5 (n=6 mice per group from 2 independent experiments). Gentle and meticulous approach when wounding and handling mouse cornea, fluorescein was diluted, slit lamp images had to be taken within a few seconds after staining. The wound area was quantified by ImageJ software. Student's t-test was used to compare data between two groups; P<0.05 was considered to be significant.

[3] = test system: retinal function (a- and b-wave) in B6J WT mice; assay: Retinal function test (ERG) in laser-induced CNV mice; assay type: in vivo, mouse; conditions: laser-induced CNV mice with and without Angio-3 treatment
Description: (§1) FIG. 3A is a schematic of the experimental design on the efficacy of Angio-3 in a laser-induced choroidal neovascularization (CNV) model in mice (B6J WT mice). FIG. 3B are FFA images of baseline and at different time points post treatment. IV single injection of 100 μL of Angio-3 (25 mg/Kg Bwt) was given at Day 0 (prevention mode) and 4 days after laser (regression mode) and followed for 10 weeks. FIG. 3C is a graph showing the area of leakage by each eye for various groups. FIG. 3D are graphs of the mean area of leakage of all batches for each group. […] The attenuation retinal vascularization was better than scrambled peptide. n=6 eyes per batch; n=3 batches. Values are expressed as means±s.e.m., **P<0.01, *P<0.05, student's t-test. FIG. 3E is a graph of the result of the Retinal Function Test that measures ERG changes in Angio-3 treated and control.
Animals were dark-adapted overnight (12 h), and the preparations for recordings were carried out under dim red light. Anesthesia and pupil dilation were induced as described. Animals were lightly secured to a stage with fastener strips across the upper and lower back to ensure a stable, reproducible position for ERG recordings. […] ERGs were recorded (Espion; Diagnosis LLC, Redwood City, Calif.) with corneal monopolar electrodes (Mayo, Aichi, Japan). […]

[4] = test system: laser-induced CNV in C57/BL6J (B6J) wild type mice; assay: Laser-induced choroidal neovascularization (CNV) model in mice, area of leakage by FFA; assay type: in vivo; conditions: mice; IV route
Description: as §1
FIG. 4A is a schematic of the experimental design on the efficacy of Angio-3 by IVT administration. […]
FIG. 11 A are FFA images of baseline and at different time points post treatment. Mice received single IVT injection of Angio-3 (at a dose of 1 μg in 1 μl or 100 ng in 1 μl), and chemically modified Angio-3 peptides Pep-N (at doses of 5 μg in μl; 1 μg in μl; and 100 ng in 1 μl, respectively) and Pep-Q peptides (at doses of 5 μg in μl; 1 μg in μl; and 100 ng in 1 μl, respectively). FIG. 11 B is a graph of the area of leakage by each eye. Single dose attenuates retinal angiogenesis in laser-induced mice CNV model via IVT route till 4 weeks. […] Eylea is the positive control. n=18 eyes per group; Values are expressed as means±s.e.m. n=3 independent experiment, **P<0.01, *P<0.05, student's t-test.
Laser induced choridal neo-vascularization (CNV) in C57/BL6J (B6J) wild type mice (n=90).
In B6J mice, single injection of 100 μl volume at 25 mg/kg Bwt concentration Angio-3 was injected via intravenous (i/v) route and this was tested in both Preventive mode (before laser) and Regression mode (4 days after laser). […]
Angio-3 was also injected via intravitreal (IVT) route, single injection of 1 μl volume at 2 different doses; 1 μg (High dose) and 100 ng (Low dose).
4 laser photocoagulation sites were placed concentrically around the optic disc of both eyes to induce CNVs. A diode laser (810 nm) was used with a relative potency scale of 120 mW for mice and 250 mW for rats, an exposure time of 0.05 s, and a spot size of […]. Laser spots were focused with crystal covers to avoid laser beam dispersion. Bubble formation was confirmed the rupture of Bruch's membrane.
Fundus photography and fundus fluorescein angiography (FFA) was imaged using a MICRON IV fundus camera (Phoenix Laboratories USA). For FFA, animals were intraperitoneally injected with 10% sodium fluorescein at a dose of 0.01 ml per 5-6 gm body weight.
In B6J mice, single intravitreous (IVT) injection of 100 ng, 1 μg, 5 μg PEP-Q, PEP-N (modified Angio-3), Angio-3 and Eylea were executed and this was tested in Prevention mode (before laser) Method of Llser induced CNV model and injection was described as above.

For “TPHTHNRTPE [Angio-3, Thr Pro His Thr His Asn Arg Thr Pro Glu]”, the “ERG a and b-wave responses (retinal function)” value [1] was “increased the a and b-wave responses for 6 weeks post treatment and then again increased the response for 20 weeks with second dose”, the “normal corneal wound healing process (percentage of wound defect remaining)” value [2] was “didn't adversely affect the normal wound healing process” and the “retinal function (ERG a- and b-wave amplitude)” value [3] was “no significant difference in retinal function”. The “natural wound healing process, menstrual cycle and behavioural change (safety of systemic route)” value [4] was “did not affect the natural wound healing process, menstrual cycle and behavioural change”.
